The values below are quoted from earlier work in patent US20070237728A1, “Method and Composition for Dental Bleaching” (HIGH TECH LASER, priority 2000, published 2007).

Read-outs that look alike come from different tables or passages of the source.

For this series, the system named is teeth.

As to `CN(C)[C@@H]1C(=O)C(C(N)=O)=C(O)[C@@]2(O)C(=O)C3=C(O)c4c(O)cccc4[C@@](C)(O)[C@H]3[C@H](O)[C@@H]12` [oxytetracyclin], for the setting “in vivo”, the “type of teeth discolouration caused” value is listed as “yellow discolouration”. As for `CN(C)[C@@H]1C(O)=C(C(N)=O)C(=O)[C@@]2(O)C(O)=C3C(=O)c4c(O)ccc(Cl)c4[C@@H](O)[C@H]3C[C@@H]12` [dimethylchlorotetracyclin], the “type of teeth discolouration caused” value (tetracycline staining of teeth) is listed as “yellow discolouration”. For `CN(C)[C@@H]1C(O)=C(C(N)=O)C(=O)[C@@]2(O)C(O)=C3C(=O)c4c(O)cccc4[C@@](C)(O)[C@H]3C[C@@H]12` [tetracycline], the “type of teeth discolouration caused” value (tetracycline staining of teeth) was “yellow discolouration”.
